# Source: US12486253B2, “Therapeutics for the degradation of mutant BRAF” (C4 THERAPEUTICS, INC., priority 2021, dated 2025)
# “Also recorded” adds a separate entry of the source.
# Experiments:
# [1] = test system: A375 NRAS^Q61K mutant melanoma cell line xenograft; experiment: In vivo efficacy in A375 NRAS^Q61K mutant melanoma xenograft; design: species or system BALBc/Nude mice; details: oral gavage
# [2] = target: BRAF V600E, test compound and CRBN ternary complex (Homo sapiens, UniProt P15056+Q96SW2, V600E); experiment: AlphaLISA ternary complex formation assay; type: binding; details: GST-BRAF V600E 16 nM, His-CRBN 64 nM
# Method: Formation of the ternary complex between BRAF V600E, test compound and CRBN was quantified using AlphaLISA® assay. GST-tagged BRAF V600E and His-tagged CRBN were labeled with a donor/acceptor AlphaLISA® pair, and complex formation was monitored via a change in the Alpha-signal. Signal from the control wells was used as a normalization control.
# Characterization of the ternary complex formation between GST-BRAF V600E, Compound 157 and his-CRBN was carried out using an AlphaLISA® assay. Compounds were dispensed from serially diluted DMSO stock in low dead volume plates into gray 384-well AlphaPlates using acoustic technology to 1% of total reaction volume. Compounds were arranged vertically in rows A through P. Concentration series were horizontal: columns 1-11, and then duplicates in columns 12-22.
# Excitation of the donor beads results in generation of singlet oxygen molecules. […]
# A 10 μL mixture containing 16 nM of BRAF V600E and 64 nM of CRBN in 50 mM HEPES (pH 7.4), 200 mM NaCl, 1 mM TCEP, 0.05% Pluronic Acid, 0.1% BSA was added to the wells containing test compounds (columns 1-22) and the negative control wells (column 23). […] Plates were then read on an Envision plate reader with an appropriate AlphaLISA® filter set.
# [3] = target: T1, GSPT1 (Homo sapiens, UniProt P15170); experiment: GSPT1 protein levels after treatment; type: cell-based; details: various concentrations
# T1 construct: endogenously expressing GSPT1 with HiBiT fusion tag via CRISPR; endogenous in cells; host or cells: HEK293T.114
# [4] = test system: phospho-ERK (T202/Y204); experiment: HTRF phospho-ERK (T202/Y204) inhibition assay in A375 cells; type: cell-based; details: Homo sapiens, A-375, 24 hrs, mean of at least n = 3, read-out: pERK IC50
# Method: A375 (harboring BRAF homozygous V600E mutation) were purchased from ATCC. DMEM Medium without phenol red and supplemented with L-glutamine was purchased from Corning (Corning, NY, USA). Advanced phospho-ERK (Thr202/Tyr204) HTRF assay kits were purchased from Cisbio (Bedford, MA, USA). Cell culture flasks and 384-well microplates were acquired from VWR (Radnor, PA, USA) or Corning (Corning, NY, USA).
# Degradation of activated phospho-ERK (T202/Y204) protein was determined based on quantification of FRET signal using the Advanced phospho-ERK (T202/Y204) HTRF assay kit. Test compounds were added to the 384-well plate from a top concentration of 10 μM with 11 points, half log titration in duplicates. A375 cells were added into 384-well plates at a cell density of 8000 cells per well, respectively. The plates were kept at 37° C. with 5% CO2 for 24 hours. Cells treated in the absence of the test compound were the negative control. Positive control was set by wells containing all reagents but no cells. FRET signal was acquired on EnVision™ Multilabel Reader (PerkinElmer, Santa Clara, CA, USA).
# BRAF V600E, test compound and CRBN ternary complex, sequence (P15056 whole entry V600E): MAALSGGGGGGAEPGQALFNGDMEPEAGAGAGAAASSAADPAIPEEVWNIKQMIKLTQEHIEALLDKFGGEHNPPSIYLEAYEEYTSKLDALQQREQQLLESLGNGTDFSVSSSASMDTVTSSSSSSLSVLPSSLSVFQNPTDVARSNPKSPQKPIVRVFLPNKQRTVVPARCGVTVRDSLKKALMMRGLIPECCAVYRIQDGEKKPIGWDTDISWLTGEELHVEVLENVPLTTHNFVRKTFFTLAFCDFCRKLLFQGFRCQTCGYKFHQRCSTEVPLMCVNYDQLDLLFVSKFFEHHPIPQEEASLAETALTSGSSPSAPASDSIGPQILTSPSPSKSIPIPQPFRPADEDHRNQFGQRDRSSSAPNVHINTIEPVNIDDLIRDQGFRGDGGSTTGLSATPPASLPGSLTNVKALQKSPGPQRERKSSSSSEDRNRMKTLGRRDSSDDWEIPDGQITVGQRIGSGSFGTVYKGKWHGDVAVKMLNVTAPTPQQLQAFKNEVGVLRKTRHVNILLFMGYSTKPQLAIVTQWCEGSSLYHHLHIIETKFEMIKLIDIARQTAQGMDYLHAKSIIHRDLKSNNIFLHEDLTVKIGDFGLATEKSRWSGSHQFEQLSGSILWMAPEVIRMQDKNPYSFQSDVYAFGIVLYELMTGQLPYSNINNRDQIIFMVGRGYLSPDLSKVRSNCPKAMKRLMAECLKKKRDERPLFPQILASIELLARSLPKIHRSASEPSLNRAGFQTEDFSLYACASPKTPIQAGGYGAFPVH
# BRAF V600E, test compound and CRBN ternary complex, sequence (Q96SW2 whole entry): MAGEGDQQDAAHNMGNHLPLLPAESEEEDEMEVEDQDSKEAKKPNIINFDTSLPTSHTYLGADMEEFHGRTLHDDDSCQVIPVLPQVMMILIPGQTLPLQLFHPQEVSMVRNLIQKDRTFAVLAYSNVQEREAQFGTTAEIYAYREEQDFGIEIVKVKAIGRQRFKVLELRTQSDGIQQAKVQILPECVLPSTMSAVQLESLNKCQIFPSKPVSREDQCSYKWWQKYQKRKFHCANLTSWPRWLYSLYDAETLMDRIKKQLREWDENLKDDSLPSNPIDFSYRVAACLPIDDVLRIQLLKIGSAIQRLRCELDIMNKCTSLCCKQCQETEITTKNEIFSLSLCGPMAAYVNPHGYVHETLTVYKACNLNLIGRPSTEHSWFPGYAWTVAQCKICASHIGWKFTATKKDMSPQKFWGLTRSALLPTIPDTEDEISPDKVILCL
# T1 sequence (P15170 whole entry, the tested form may be a part): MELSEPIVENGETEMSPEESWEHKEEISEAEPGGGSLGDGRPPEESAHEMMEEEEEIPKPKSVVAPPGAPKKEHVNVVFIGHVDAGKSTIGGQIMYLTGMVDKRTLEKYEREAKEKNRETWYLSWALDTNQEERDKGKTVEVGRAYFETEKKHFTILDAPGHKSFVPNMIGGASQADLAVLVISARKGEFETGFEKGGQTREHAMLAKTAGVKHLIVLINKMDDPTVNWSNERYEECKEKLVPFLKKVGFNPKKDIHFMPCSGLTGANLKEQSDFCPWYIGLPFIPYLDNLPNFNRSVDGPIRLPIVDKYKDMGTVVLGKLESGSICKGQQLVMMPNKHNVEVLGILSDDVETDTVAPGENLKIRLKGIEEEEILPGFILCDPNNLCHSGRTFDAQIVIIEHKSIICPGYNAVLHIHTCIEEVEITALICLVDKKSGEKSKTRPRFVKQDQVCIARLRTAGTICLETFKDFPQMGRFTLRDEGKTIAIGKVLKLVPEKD
compound,measurement,setting,value
"CCN(C)S(=O)(=O)Nc1ccc(F)c(Oc2ccc3ncn([C@H]4COC5(CCN(C(=O)CC6(O)CCN(c7cc8c(cc7F)c(N7CCC(=O)NC7=O)nn8C)CC6)CC5)C4)c(=O)c3c2)c1C#N [Compound 157, (3R)-3-[6-[2-cyano-3-[[ethyl(methyl)sulfamoyl]amino]-6-fluorophenoxy]-4-oxoquinazolin-3-yl]-8-[2-[1-[3-(2,4-dioxo-1,3-diazinan-1-yl)-5-fluoro-1-methylindazol-6-yl]-4-hydroxypiperidin-4-yl]acetyl]-1-oxa-8-azaspiro[4.5]decane]","tumor response, single agent",[1]; single agent,robust tumor growth inhibition; also recorded: efficacious
same,"tumor response, in combination with trametinib",[1]; with MEKi trametinib 0.1 mg/kg BID,tumor regressions
same,Ternary complex formation (concentration dependence),[2],characteristic bell-shaped curve
same,GSPT1 protein levels,[3],steady
same,IC50,[4],3.2 nM
